For 16 compounds, IC50 results are on record in ChEMBL document CHEMBL5042477, “Potent Cyclic Peptide Inhibitors of FXIIa Discovered by mRNA Display with Genetic Code Reprogramming” (J Med Chem, 2021).

Structures are written as SMILES. pIC50: −log10 of the molar value. Where a SMILES comes first, the peptide text is derived from it. Bridges are numbered along the chain shown (N, C = ends). [ ]: non-standard residue; d: D form. Phe(3-CF3) = N[C@@H](Cc1cccc(C(F)(F)F)c1)C(=O)O; Phe(4-CF3) = N[C@@H](Cc1ccc(C(F)(F)F)cc1)C(=O)O; Phe(3-CN) = N#Cc1cccc(C[C@H](N)C(=O)O)c1; Phe(3-OMe) = COc1cccc(C[C@H](N)C(=O)O)c1; Phe(4-CN) = N#Cc1ccc(C[C@H](N)C(=O)O)cc1; Phe(2-OMe) = COc1ccccc1C[C@H](N)C(=O)O; Phe(3-F) = N[C@@H](Cc1cccc(F)c1)C(=O)O; Phe(3-Me) = Cc1cccc(C[C@H](N)C(=O)O)c1; Phe(4-F) = N[C@@H](Cc1ccc(F)cc1)C(=O)O; Phe(4-Me) = Cc1ccc(C[C@H](N)C(=O)O)cc1; Phe(2-F) = N[C@@H](Cc1ccccc1F)C(=O)O; Phe(2-Me) = Cc1ccccc1C[C@H](N)C(=O)O; hTyr = N[C@@H](CCc1ccc(O)cc1)C(=O)O; hPhe = N[C@@H](CCc1ccccc1)C(=O)O; Tic = O=C(O)[C@@H]1Cc2ccccc2CN1; Agb = N=C(N)NCC[C@H](N)C(=O)O

This assay addresses T1, Coagulation factor XII (Homo sapiens, UniProt P00748).
T1 sequence (P00748 whole entry): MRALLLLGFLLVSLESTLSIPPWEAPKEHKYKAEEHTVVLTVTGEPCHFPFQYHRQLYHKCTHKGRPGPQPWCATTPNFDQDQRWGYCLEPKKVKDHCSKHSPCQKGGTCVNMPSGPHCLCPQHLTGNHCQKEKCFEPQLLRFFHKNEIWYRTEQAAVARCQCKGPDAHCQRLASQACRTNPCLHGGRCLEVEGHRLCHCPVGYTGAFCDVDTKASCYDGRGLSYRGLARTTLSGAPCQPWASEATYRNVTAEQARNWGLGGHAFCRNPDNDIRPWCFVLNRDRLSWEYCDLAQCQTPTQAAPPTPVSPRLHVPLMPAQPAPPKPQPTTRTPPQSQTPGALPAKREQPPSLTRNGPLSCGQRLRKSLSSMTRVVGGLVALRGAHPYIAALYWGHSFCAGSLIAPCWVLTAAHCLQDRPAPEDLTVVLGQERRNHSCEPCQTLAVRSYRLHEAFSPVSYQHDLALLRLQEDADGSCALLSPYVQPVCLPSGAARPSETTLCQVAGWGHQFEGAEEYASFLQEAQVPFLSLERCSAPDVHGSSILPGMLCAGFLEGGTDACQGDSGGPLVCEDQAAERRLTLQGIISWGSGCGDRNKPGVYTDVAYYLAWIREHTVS
The assay can be described thus: Inhibition of human factor 12a using H-D-Pro-Phe-Arg-p-nitroanilide as chromogenic substrate assessed as liberation of p-nitroaniline measured every 5 mins for 60 min by multimode plate reader analysis.
The term pIC50 denotes the negative decadic logarithm of the IC50, by convention in mol/L. `CC(C)C[C@@H]1NC(=O)[C@H](Cc2ccc(O)cc2)NC(=O)CSC[C@@H](C(N)=O)NC(=O)CNC(=O)CNC(=O)[C@H](CCCNC(=N)N)NC(=O)[C@H](CC(=O)O)NC(=O)[C@H](CCCCN)NC(=O)[C@@H]2CCCN2C(=O)[C@H](CCCNC(=N)N)NC(=O)[C@H](Cc2ccccc2F)NC(=O)[C@H](CCCNC(=N)N)NC1=O` ({CH2CO}-YLR[Phe(2-F)]RPKDRGGC-NH2; thioether N-12): the pIC50 was 7.28.
`Cc1ccccc1C[C@@H]1NC(=O)[C@H](CCCNC(=N)N)NC(=O)[C@H](CC(C)C)NC(=O)[C@H](Cc2ccc(O)cc2)NC(=O)CSC[C@@H](C(N)=O)NC(=O)CNC(=O)CNC(=O)[C@H](CCCNC(=N)N)NC(=O)[C@H](CC(=O)O)NC(=O)[C@H](CCCCN)NC(=O)[C@@H]2CCCN2C(=O)[C@H](CCCNC(=N)N)NC1=O` ({CH2CO}-YLR[Phe(2-Me)]RPKDRGGC-NH2; thioether N-12): the pIC50 was 7.37.
`COc1ccccc1C[C@@H]1NC(=O)[C@H](CCCNC(=N)N)NC(=O)[C@H](CC(C)C)NC(=O)[C@H](Cc2ccc(O)cc2)NC(=O)CSC[C@@H](C(N)=O)NC(=O)CNC(=O)CNC(=O)[C@H](CCCNC(=N)N)NC(=O)[C@H](CC(=O)O)NC(=O)[C@H](CCCCN)NC(=O)[C@@H]2CCCN2C(=O)[C@H](CCCNC(=N)N)NC1=O` ({CH2CO}-YLR[Phe(2-OMe)]RPKDRGGC-NH2; thioether N-12): the pIC50 was 7.22.
The figure for `CC(C)C[C@@H]1NC(=O)[C@H](Cc2ccc(O)cc2)NC(=O)CSC[C@@H](C(N)=O)NC(=O)CNC(=O)CNC(=O)[C@H](CCCNC(=N)N)NC(=O)[C@H](CC(=O)O)NC(=O)[C@H](CCCCN)NC(=O)[C@@H]2CCCN2C(=O)[C@H](CCCNC(=N)N)NC(=O)[C@H](Cc2cccc(C(F)(F)F)c2)NC(=O)[C@H](CCCNC(=N)N)NC1=O` ({CH2CO}-YLR[Phe(3-CF3)]RPKDRGGC-NH2; thioether N-12) is 7.03; for `CC(C)C[C@@H]1NC(=O)[C@H](Cc2ccc(O)cc2)NC(=O)CSC[C@@H](C(N)=O)NC(=O)CNC(=O)CNC(=O)[C@H](CCCNC(=N)N)NC(=O)[C@H](CC(=O)O)NC(=O)[C@H](CCCCN)NC(=O)[C@@H]2CCCN2C(=O)[C@H](CCCNC(=N)N)NC(=O)[C@H](Cc2cccc(C#N)c2)NC(=O)[C@H](CCCNC(=N)N)NC1=O` ({CH2CO}-YLR[Phe(3-CN)]RPKDRGGC-NH2; thioether N-12) it is 6.80.
Regarding `CC(C)C[C@@H]1NC(=O)[C@H](Cc2ccc(O)cc2)NC(=O)CSC[C@@H](C(N)=O)NC(=O)CNC(=O)CNC(=O)[C@H](CCCNC(=N)N)NC(=O)[C@H](CC(=O)O)NC(=O)[C@H](CCCCN)NC(=O)[C@@H]2CCCN2C(=O)[C@H](CCCNC(=N)N)NC(=O)[C@H](Cc2cccc(F)c2)NC(=O)[C@H](CCCNC(=N)N)NC1=O` ({CH2CO}-YLR[Phe(3-F)]RPKDRGGC-NH2; thioether N-12), the pIC50 is 7.18.
On to `Cc1cccc(C[C@@H]2NC(=O)[C@H](CCCNC(=N)N)NC(=O)[C@H](CC(C)C)NC(=O)[C@H](Cc3ccc(O)cc3)NC(=O)CSC[C@@H](C(N)=O)NC(=O)CNC(=O)CNC(=O)[C@H](CCCNC(=N)N)NC(=O)[C@H](CC(=O)O)NC(=O)[C@H](CCCCN)NC(=O)[C@@H]3CCCN3C(=O)[C@H](CCCNC(=N)N)NC2=O)c1` ({CH2CO}-YLR[Phe(3-Me)]RPKDRGGC-NH2; thioether N-12), for which the pIC50 is 7.14.
Consider `COc1cccc(C[C@@H]2NC(=O)[C@H](CCCNC(=N)N)NC(=O)[C@H](CC(C)C)NC(=O)[C@H](Cc3ccc(O)cc3)NC(=O)CSC[C@@H](C(N)=O)NC(=O)CNC(=O)CNC(=O)[C@H](CCCNC(=N)N)NC(=O)[C@H](CC(=O)O)NC(=O)[C@H](CCCCN)NC(=O)[C@@H]3CCCN3C(=O)[C@H](CCCNC(=N)N)NC2=O)c1` ({CH2CO}-YLR[Phe(3-OMe)]RPKDRGGC-NH2; thioether N-12), for which the pIC50 is 6.92.
For `CC(C)C[C@@H]1NC(=O)[C@H](Cc2ccc(O)cc2)NC(=O)CSC[C@@H](C(N)=O)NC(=O)CNC(=O)CNC(=O)[C@H](CCCNC(=N)N)NC(=O)[C@H](CC(=O)O)NC(=O)[C@H](CCCCN)NC(=O)[C@@H]2CCCN2C(=O)[C@H](CCCNC(=N)N)NC(=O)[C@H](Cc2ccc(C(F)(F)F)cc2)NC(=O)[C@H](CCCNC(=N)N)NC1=O` ({CH2CO}-YLR[Phe(4-CF3)]RPKDRGGC-NH2; thioether N-12), the pIC50 was 6.96.
`CC(C)C[C@@H]1NC(=O)[C@H](Cc2ccc(O)cc2)NC(=O)CSC[C@@H](C(N)=O)NC(=O)CNC(=O)CNC(=O)[C@H](CCCNC(=N)N)NC(=O)[C@H](CC(=O)O)NC(=O)[C@H](CCCCN)NC(=O)[C@@H]2CCCN2C(=O)[C@H](CCCNC(=N)N)NC(=O)[C@H](Cc2ccc(C#N)cc2)NC(=O)[C@H](CCCNC(=N)N)NC1=O` ({CH2CO}-YLR[Phe(4-CN)]RPKDRGGC-NH2; thioether N-12): the pIC50 was 7.05.
With `CC(C)C[C@@H]1NC(=O)[C@H](Cc2ccc(O)cc2)NC(=O)CSC[C@@H](C(N)=O)NC(=O)CNC(=O)CNC(=O)[C@H](CCCNC(=N)N)NC(=O)[C@H](CC(=O)O)NC(=O)[C@H](CCCCN)NC(=O)[C@@H]2CCCN2C(=O)[C@H](CCCNC(=N)N)NC(=O)[C@H](Cc2ccc(F)cc2)NC(=O)[C@H](CCCNC(=N)N)NC1=O` ({CH2CO}-YLR[Phe(4-F)]RPKDRGGC-NH2; thioether N-12), the pIC50 was 7.34.
On to `Cc1ccc(C[C@@H]2NC(=O)[C@H](CCCNC(=N)N)NC(=O)[C@H](CC(C)C)NC(=O)[C@H](Cc3ccc(O)cc3)NC(=O)CSC[C@@H](C(N)=O)NC(=O)CNC(=O)CNC(=O)[C@H](CCCNC(=N)N)NC(=O)[C@H](CC(=O)O)NC(=O)[C@H](CCCCN)NC(=O)[C@@H]3CCCN3C(=O)[C@H](CCCNC(=N)N)NC2=O)cc1` ({CH2CO}-YLR[Phe(4-Me)]RPKDRGGC-NH2; thioether N-12), for which the pIC50 is 7.25.
With `CC(C)C[C@@H]1NC(=O)[C@H](Cc2ccc(O)cc2)NC(=O)CSC[C@@H](C(N)=O)NC(=O)CNC(=O)CNC(=O)[C@H](CCCNC(=N)N)NC(=O)[C@H](CC(=O)O)NC(=O)[C@H](CCCCN)NC(=O)[C@@H]2CCCN2C(=O)[C@H](CCCNC(=N)N)NC(=O)[C@@H]2Cc3ccccc3CN2C(=O)[C@H](CCCNC(=N)N)NC1=O` ({CH2CO}-YLR[Tic]RPKDRGGC-NH2; thioether N-12), the pIC50 was 4.66.
For `CC(C)C[C@@H]1NC(=O)[C@H](Cc2ccc(O)cc2)NC(=O)CSC[C@@H](C(N)=O)NC(=O)CNC(=O)CNC(=O)[C@H](CCCNC(=N)N)NC(=O)[C@H](CC(=O)O)NC(=O)[C@H](CCCCN)NC(=O)[C@@H]2CCCN2C(=O)[C@H](CCCNC(=N)N)NC(=O)[C@H](CCc2ccccc2)NC(=O)[C@H](CCCNC(=N)N)NC1=O` ({CH2CO}-YLR[hPhe]RPKDRGGC-NH2; thioether N-12), the pIC50 was 6.13.
For `CC(C)C[C@@H]1NC(=O)[C@H](Cc2ccc(O)cc2)NC(=O)CSC[C@@H](C(N)=O)NC(=O)CNC(=O)CNC(=O)[C@H](CCCNC(=N)N)NC(=O)[C@H](CC(=O)O)NC(=O)[C@H](CCCCN)NC(=O)[C@@H]2CCCN2C(=O)[C@H](CCCNC(=N)N)NC(=O)[C@H](CCc2ccc(O)cc2)NC(=O)[C@H](CCCNC(=N)N)NC1=O` ({CH2CO}-YLR[hTyr]RPKDRGGC-NH2; thioether N-12), the pIC50 is 6.25.
For `CC(C)C[C@@H]1NC(=O)[C@H](Cc2ccc(O)cc2)NC(=O)CSC[C@@H](C(N)=O)NC(=O)CNC(=O)CNC(=O)[C@H](CCCNC(=N)N)NC(=O)[C@H](CC(=O)O)NC(=O)[C@H](CCCCN)NC(=O)[C@@H]2CCCN2C(=O)[C@H](CCCNC(=N)N)NC(=O)[C@H](Cc2ccccc2)NC(=O)[C@H](CCNC(=N)N)NC1=O` ({CH2CO}-YL[Agb]FRPKDRGGC-NH2; thioether N-12), the pIC50 is 6.23.
